Reference: patent publication US20030013658A1, “Small peptides and methods for treatment of asthma and inflammation” (Hisatek, LLC, priority 1997, published 2003)

Columns and labels:
Assay type in all cases: in vivo
[1] = test system: OVA-sensitized/challenged mice; assay: OVA allergen-induced airway inflammation mouse model, 28-day protocol, HK-X i.n. before each challenge; details: p<0.004; FIG. 11
Text: The above-described murine model reproduces key features of human asthma. Late-phase allergen-specific pulmonary disease was induced in normal BALB/c mice using ovalbumin (OVA) as allergen. One protocol includes immunization of mice with i.p. OVA on […] and 14, and intranasal (i.n.) administration of OVA on days 14, 25, 26, and 27.
In a mouse model of allergen-induced airway inflammation, the role of mast cell in airway eosinophil infiltration, mucus release, and hyper-responsiveness to methacholine was examined.
Materials were used as described above. Mice received an i.p. injection of 0.2 ml (100 ug) of OVA complexed with aluminum potassium sulfate (alum) on day 0 and 14. On days 14, 25, 26, and 27, mice were anesthetized with 0.2 ml i.p. of ketamine (0.44 mg/ml)/xylazine (6.3 mg/ml) in normal saline before receiving an intranasal (i.n.) dose of 100 ug OVA in 0.05 ml normal saline on days 25, 26, and 27. Lung tissue was obtained 24 hours after the last i.n. challenge on day 28. The control group received normal saline with alum i.p. on days 0 and 14 and normal saline without alum i.n. on days 14, 25, 26, and 27. To assess the effect of HK-X inhibition on OVA induced asthma, HK-X (10 ug/ml) was given i.n. 30 minutes before each i.n challenge on days 25, 26, and 27.
After tying off the left lung at the mainstem bronchus, the right lung was […] three times with 0.4 ml of normal saline, Bronchoalveolar lavage (BAL) fluid cells from a 0.05 ml aliquot of the pooled sample were counted using a hemocytometer and the remaining fluid centrifuged at 4° C. for 10 minutes at 200 g. After resuspension of the cell pellet in normal saline containing 10% BSA, BAL cell smears were made on glass slides. To stain eosinophils, dried slides were stained with Discombe's diluting fluid (0.05% aqueous eosin and 5% (v/v) acetone in distilled water) for 5-8 minutes, rinsed with water for 0.5 minutes and counterstained with 0.07 methylene blue for 2 minutes.
Following BAL, the trachea and left lung (upper and lower lobes) were obtained and fixed in 10% buffered formalin solution at 20° C. for1S hours. After the tissues were processed and embeded in paraffin, the tissues were cut into 5 μm sections and stained with Discombe's solution and counterstained with methylene blue as described above or stained with Hematoxylin and eosin. The eosinophil number per unit airway area (2200 μm^2) was determined by morphometry as previously described. Airway mucus was identified by a variety of staining methods, i.e., methylene blue, Hematoxylin and eosin, mucicarmine, toluidine blue, alcian blue, and alcian blue/periodic acid Schiff (PAS) reaction. Mucin was stained with mucicarmine solution; metanil yellow counterstain was employed. Mucin and sialic acid-rich non-sulfated mucosubstances were stained metachromatically with toluidine blue, pH 4.5. Acidic mucin and sulfated mucosubstances were stained with alcian blue, pH 2.5; nuclear fast red counterstain was used. Neutral and acidic mucosubstances were identified by alcian blue, pH 2.5 and PAS reaction. The degree of mucus plugging of the airways (0.5˜0.8 mm in diameter) also was assessed by morphometry. The percent occlusion of airway diameter by mucus was classified on a semiquantitative scale from 0 to +++++. The histologic and morphometric analyses protocol design were performed by individuals blinded to the protocol design.
Mucus glycoproteins in BAL fluid were assayed by slot blotting and PAS staining as described. Nitrocellulose membranes (0.2 um pore size; Schleicher & Schuell, Keene, N.H.) were wetted in distilled water and then in normal saline before placement in a Minifold II 72-well slot blot apparatus (Schleicher & Schuell). The BAL fluid samples (0.05 ml) and aliquots (0.05-0.75 ml) of a stock solution (2 ug/ml) of human respiratory mucin glycoprotein were blotted onto the nitrocellulose membranes by water suction vacuum, and mucus glycoproteins were visualized by PAS reaction. […]

[2] = test system: OVA-sensitized/challenged mice; assay: OVA-induced bronchial asthma mouse model (Standard/Resolution protocols, 1-3 month), airway eosinophils and mucus plugs
Text: The OVA-induced Bronchial Asthma Mouse Model for Inhibition of Mast Cell Degranulation
Reagents: Crystalline OVA was obtained from Pierce Chem. Co. (Rockford, Ill.) aluminum potassium sulfate (alum) from Sigma Chem. Co. (St. Louis, Mo.), pyrogen-free distilled water from Baxter, Healthcare Corporation (Deerfield, Ill.), 0.9% sodium chloride (normal saline) from Lymphomed (Deerfield, Ill.) and Trappsol™ HPB-L100 (aqueous hydroxypropyl beta cyclodextrin; 45 wt/vol % aqueous solution) from Cyclodextrin Technologies Development, Inc. (Gainesville, Fla.). The OVA (500 μg/ml in normal saline) was mixed with equal volumes of 10% (wt/vol) alum in distilled water. The mixture (pH 6.5 using 10 N NaOH) after incubation for 60 minutes at room temperature underwent centrifugation at 750 g for 5 minutes; the pellet was resuspended to the original volume in distilled water and used within one hour.
The selective 5-lipoxtgenase inhibitor, Zileuton (N-[1-benzo[b]thien-2-ylethyl]-N-hydroxyurea; J. Pharmacol Exp Ther. 1991; 256: 929-937), was kindly provided by Drs. Bell and George W. Carter (Abbott Laboratories, Abbott Part, Ill.). Zileuton was dissolved in Trappsol.™. Histatek, Inc. (Seattle, Wash.) provided the mast cell degranulation inhibitor, f-Met-Leu-Phe-Phe (“HK-X”).
Female BALB/c […] (6-8 wk of age at purchase; D and K, Seattle Wash.) were housed under conventional conditions for the studies.
Allergen Immunization/Challenge Protocols: Mice received an i.p. injection of 0.2 ml (100 μg) of OVA with alum on the different protocols of Standard (FIG. 5A) and Resolution (FIG. 5B) (J. Exp Med. 1996; 184: 1483-1494). According to the different protocols, mice were anesthetized with 0.2 ml i.p. of ketamine (0.44 mg/ml)/xylazine (6.3 mg/ml) in normal saline before receiving an intranasal (i.n.) does of 100 μg OVA in 0.05 ml normal saline and an i.n. dose of 50 μg OVA in 0.05 ml normal saline separately on different days. Two control groups were used. Accordingly, the first group received normal saline with alum i.p. and normal saline without alum i.n.; the second group received OVA with alum i.p., OVA without alum i.n., and normal saline, alone.
The trachea and left lung (the right lung is used for bronchoalveolar lavage (“BAL”)) were obtained and fixed in 10% neutral formaldehyde solution at room temperature for 6˜15 h. After being embedded in paraffin, the tissues were cut into 5-um sections and processed with the different staining or immunolabling further. Discombe's eosinophil staining was used for counting the cell numbers with the counterstain of methylene blue. The eosinophil number per unit airway area (2,200 μm^2) was determined by morphometry (J. Pathol. 1992; 166: 395-404; Am Rev Respir Dis. 1993; 147:448-456). Fibrosis was identified with the Masson's trichrome staining. Airway mucus was identified by the following staining method: methylene blue, hematoxylin and eosin, mucicarmine, alcian blue, and alcian blue/periodic acid-Schiff (PAS) reaction (Troyer, H., “Carbohydrates” in Principles and Techniques of Histochemistry, Little, Brown and Company, Boston, Mass., 1980: 89-121; Sheehan, D. C., et al., “Carbohydrates” in Theory and Practice of Histotechnology, Battle Press, Columbus, Ohio, 1980: 159-179) Mucin was stained with mucicarmine solution; metanil yellow counterstain was employed. Acidic mucin and sulfated mucosubstances were stained with alcian blue, pH 2.5; nuclear fast red counterstain was used. Neutral and acidic mucosubstances were identified by alcian blue, pH 2.5, and PAS reaction. The degree of mucus plugging of the airways (0.5-0.8 mm in diameter) was also assessed by morphometry. The percent occlusion of airway diameter by mucus was classified on a semiquantitative scale from 0 to 4+ as described in Figure Legends. The histologic and morphometric analyses were performed by individuals blinded to the protocol design. […]

[3] = test system: OVA-sensitized/challenged mice; assay: OVA allergen-induced airway inflammation mouse model, 28-day protocol, HK-X i.n. before each challenge; details: p=0.0128 compared to OVA without zileuton; data not shown
[4] = test system: mast cell degranulation induced by Compound 48/80; assay: Rat skin model: inhibition of Compound 48/80-induced mast cell degranulation (capillary permeability, trypan blue); details: 0.15 μg Compound 48/80; for % Degranulation: percent mast cell degranulation produced by 48/80, 100 nanomoles peptide
Procedure: The Rat Skin Model for Determination of Inhibition of Mast Cell Degranulation
In this model, the blood plasma of the experimental rat is labeled with the dye trypan blue. This soluble dye is carried in the bloodstream as a passive marker of plasma itself, and is excluded from live cells. Intact blood vessels, including the capillary system, retain this dye under normal circumstances. A compound, which induces degranulation of mast cells (resulting in leukotriene and histamine release), is injected into the skin to simulate allergen-induced degranulation. In these experiments, Compound 48/80 was used for this purpose. In the events following leukotriene and histamine release, capillary permeability is increased, and plasma, dyed blue, leaks from capillaries and dyes the skin surrounding the injection site blue. The area of bluing is a measure of the amount of Compound 48/80 injected.
A compound can be tested for “anti-leukotriene” and/or “anti-histamine” activity by mixing it with Compound 48/80 prior to injection.
The rat skin model was undertaken and validated. Various peptides were tested at a predetermined dose for anti-leukotriene and/or anti-histamine activity. The dose selected allowed a general comparison to f-Met-Leu-Phe, which was standard compound for comparison.
A “dose response” titration was performed for some compounds and compared with the standard compound. Observing serial decreases in the size areas of capillary permeability using serially smaller doses of the putative inhibitory compound validates the inhibition of leukotriene and/or histamine release observed in the initial predetermined dose test.
Reagents were obtained from Sigma or Aldrich, with the exception of ketamine, a veterinary anaesthetic that was obtained from various veterinary suppliers. The rats used were male Sprague-Dawley breed, 220-240 g at time of purchase from B&K International.
For the rat skin reaction, rats were anaesthetized with 0.25 ml 10 mg/ml ketamine. 1.0 ml trypan blue in saline (sterile filtered) was administered in a tail vein, and the back of the rat was shaved. Four intradermal injection sites per rat were used for test and control injections.
Compound 48/80 was prepared as a 1.5 mg/ml stock solution in saline. […] Serial dilutions in saline to working levels were prepared just prior to injection of each rat.
Peptides were prepared as a 23 mM stock solution in DMSO, and stored at −20° C. between experiments. At the time of use, the frozen stock solutions were thawed, and appropriate aliquots added to dilutions of Compound 48/80, along with appropriate amounts of DMSO, to result in the ratio of 5 μl DMSO to 0.1 ml aqueous Compound 48/80.
For injections, 0.1 ml […], +1/− test compounds were injected intradermally into anaesthetized, dyed, and shaved rats. Following a 15 minute incubation, the rats were sacrificed by cervical dislocation and the back skin was evulsed and placed on a light box. An image of the backlit skin was digitized using a CCD video capture camera and compatible hardware/software. The digitized image was analyzed using a scientific graphics analysis software package, and the areas of capillary permeability (bluing) were integrated and digital values were obtained for further analysis.
A dose response curve was generated using Compound 48/80 at various doses from ca. 0.01 μg through ca. 15 μg. […] A dose of 0.15 μg of Compound 48/80 was selected for conducting further tests.
Several f-Met-Leu peptides were tested for inhibition of induced degranulation in the rat skin model using 100 nanomoles of the test peptide and a dose of 0.15 μg Compound 48/80. An intrinsic zero-peptide-dose 48/80 control was included in each rat for each experiment, and the % of inhibition was expressed in relative terms to this control (0% inhibition). The percent mast cell degranulation produced by 48/80 was also determined.

## CC(c1cc2ccccc2s1)N(O)C(N)=O (stereo not shown) [Zileuton, N-[1-benzo[b]thien-2-ylethyl]-N-hydroxyurea, reference compound]
[1]
  decrease in number of eosinophils in the BAL fluid: 82%
[2]; 1 month
  AIRWAY INFLUX OF EOSINOPHILS (%): 15.50%
[2]; 2 month
  AIRWAY INFLUX OF EOSINOPHILS (%): 11.66%
[2]; 3 month
  AIRWAY INFLUX OF EOSINOPHILS (%): 10.73%
[2]; 28 days
  % of plug of airway: 16%
[2]; 28 days of treatment
  PERCENTAGE OF EOSINOPHILS IN AIRWAY TISSUE: 15.8%
[2]; 28 days, semiquantitative scale 0 to 4+
  MUCUS PLUG SCORE IN AIRWAYS: 1.3
[2]; through 1-3 month
  reduction of airway eosinophils: could reduced eosinophils generally through 1-3 month
[3]
  decrease in eosinophils recovered in the BAL fluid: 89%

## N-acetyl-Met-Leu-Phe [Example 3]
[4]
  % Degranulation: 98%

## f-Met-Leu-Phe [Example 2, reference compound]
[4]; doses of 0 to about 230 nM peptide, FIG. 2 / FIG. 3
  dose response, inhibition of degranulation induced by Compound 48/80: Inhibition of degranulation induced by Compound 48/80 was clearly shown
[4]
  % Degranulation: 60%

## f-Met-Leu-Tyr [Example 10]
[4]
  % Degranulation: 30%
